# According to patent US20080039522A1, “Composition Containing a Complex Comprising a Metal Ion and a Carboxylate Ligand Having Anti-Inflammatory Activity” (Medical Therapies Limited, priority 2004, published 2008):
# Experiments:
# [1] = test system: Sprague-Dawley rats; experiment: Observation of the site of the subcutaneous injection; format: in vivo, rat; details: subcutaneous, in MCT oil, all doses
# Experimental: (§1) In Vivo Anti-inflammatory Activity and Gastric Toxicity. Groups of four rats were used for all studies. All doses were calculated as equivalent concentrations of Indo. […] For subcutaneous and intramuscular administration, rats were injected with 125-200 μL volumes of the test compositions (IndoH or [Cu2(Indo)4(OH2)2] in MCT oil). The control cohort was injected with equivalent volumes of neat MCT. Subcutaneous injections were made in the lower dorsal surface and intramuscular injections were made in the right hind thigh muscle. Inflammation was induced 1 h after dosing by injection of the formulation by an injection of carrageenan (0.1 mL, 1% w/v in isotonic saline) into the plantar region of the hind paw.
# [2] = test system: Sprague-Dawley rats; experiment: Anti-inflammatory activity (rat paw oedema) of topical creams; format: in vivo; details: topical emulsifying cream
# Experimental: All rat experiments were performed as outlined in Example 7, except for the following changes. In Vivo Anti-inflammatory Activity and Gastric Toxicity. For topical administration, rats were treated with test compositions containing [Cu2(Indo)4(OH2)2] (“CuIndo”), [Zn(Indo)2(OH2)2] (“ZnIndo”), IndoH, or an equivalent Indo and Cu dose of a physical mixture of [Cu2(OAc)4(OH2)2] and IndoH thoroughly mixed in an emulsifying cream (see below). An amount of 0.2 g of the composition was applied to the right hind paw of each animal and gently massaged in for 1 minute at three-hourly intervals. Inflammation was induced at the final topical application with an injection of carrageenan (0.1 mL, 1% w/v in isotonic saline) into the plantar region of the hind paw. The composition for topical application was a composition comprising 0.5-2% w/w of Indo delivered as [Cu2(Indo)4(OH2)2] (“CuIndo”), [Zn(Indo)2(OH2)2] (“ZuIndo”), IndoH or an equivalent Indo and Cu dose of a physical mixture of [Cu2(OAc)4(OH2)2] and IndoH in an emulsifying cream, the emulsifying cream consisting of: […]
# [3] = test system: Sprague-Dawley rats; experiment: Small intestine ulceration after oral administration; format: in vivo, rat; details: rats fed, oral gavage, 24 h after dosing; IndoH 10 mg kg^−1, complexes 11 mg kg^−1; mean ± sem; listed as Sample F
# Experimental: The rats were orally administered (non-anaesthetized) the Test Samples or Test Compositions via oral gavage. The controls were dosed with CMC (2%) solution.
# (§2) The total volume of the MCT or carbopol paste compositions administered per dose in the assessment of gastrointestinal ulceration was no more than 0.5 g.
# [4] = test system: Sprague-Dawley rats; experiment: Anti-inflammatory activity (rat paw oedema) after subcutaneous or intramuscular injection; format: in vivo
# Experimental: as §1
# Paw volume was measured prior to dosing and at 3 h after carrageenan injection by immersing the left hind paw (to the lateral malleus) into a vessel filled with water as described in Example 5. Immediately after paw volume measurements, 24 h-fasted animals were euthanised and the stomach was excised and opened by incision along the greater curvature.
# [5] = test system: Sprague-Dawley rats; experiment: Acute gastric ulceration after oral administration; format: in vivo, rat; details: rat, in vivo
# Experimental: Gastrointestinal Ulceration: To assess gastric damage, rats (n=4 per group) were fasted overnight with free access to water prior to the oral administration (non-anaesthetized) of the Test Samples or Test Compositions via oral gavage. The controls were dosed with CMC (2%) solution. Three hours after dosing, the rats were euthanised and the stomach was excised and opened by incision along the greater curvature. The stomach was rinsed, submerged in 10% formaldehyde for 1 h and examined to determine the extent of macroscopic gastric damage.
# as §2
# In order to illustrate the adverse effects of decomposition of the copper complex in the formulation, the gastric toxicity of IndoH, Cu-acetate, a physical mixture of Cu-acetate and IndoH and [Cu2(Indo)4(DMF)2] were tested at equivalent doses of Indo (10 mg kg^−1) and/or Cu in the MCT paste or a 2% (w/v) aqueous solution of carboxymethylcellulose (CMC). The MCT paste formulations were prepared as described in Example 3 but using IndoH, Cu-acetate, a physical mixture of Cu-acetate and IndoH, or [Cu2(Indo)4(DMF)2] instead of [Cu2(Indo)4(OH2)2]. The gastric toxicity was tested as described above. The results of these experiments are illustrated in FIG. 3.
# In further experiments designed to test the toxicity of solutions of the Cu complex, the [Cu2(Indo)4(DMF)2] complex was dissolved in DMF and gastric toxicities were assessed. […] Similar results would be expected using other complexes, including [Cu2(Indo)4(OH2)2], in a non-colloidal solution.
# [6] = test system: Sprague-Dawley rats; experiment: Inhibition of carrageenan-induced paw edema, oral administration; format: in vivo, rat; details: oral, IndoH 10 mg kg^−1, complex 11 mg kg^−1, mean(sem)
# Experimental: Inhibition of Carrageenan-Induced Paw Edema: Rats were orally administered (non-anaesthetized) the Test Samples or Test Compositions via oral gavage. The control cohort was dosed solely with CMC (2%) solution. […] Exp. Ther. 1965, 150, 165-171). The thickness of the paw was measured at the ventral dorsal footpad using digital calipers prior to dosing and at 3 and 5 h after carrageenan injection. The change in the measured parameter (ΔP) for thickness of paw (Δmm) at n=3- and 5-hours after carrageenan injection is given by: ΔP=Pt=n-Pt=0 (I) The percent inhibition (% inhibition) at 3- or 5-hours in the measured parameter (P) due to the treatment is given as the difference between the % increase in the value of P in the control group and the treatment group at n=3- or 5-hours, with the % increase in the value of P given by: […]
compound,measurement,setting,value
COc1ccc2c(c1)c(CC(=O)[O-])c(C)n2C(=O)c1ccc(Cl)cc1.COc1ccc2c(c1)c(CC(=O)[O-])c(C)n2C(=O)c1ccc(Cl)cc1.COc1ccc2c(c1)c(CC(=O)[O-])c(C)n2C(=O)c1ccc(Cl)cc1.COc1ccc2c(c1)c(CC(=O)[O-])c(C)n2C(=O)c1ccc(Cl)cc1.O.O.[Cu+2].[Cu+2] [[Cu2(Indo)4(OH2)2]],adverse effect at the site of the injection,[1],"None of the rats exhibited soreness, swelling, redness or any other adverse effect"
same,Efficacy (% inhib),[2]; conc. 0.5 % equiv of Indo,12.2 % inhib
same,Efficacy (% inhib),[2]; conc. 0.75 % equiv of Indo,73 % inhib
same,Efficacy (% inhib),[2]; conc. 1 % equiv of Indo,52 % inhib
same,Efficacy (% inhib),[2]; conc. 2 % equiv of Indo,55.2 % inhib
same,Small intestine ulceration (mm^2),[3],61.0±34.5 mm^2
same,Percent inhibition,"[4]; intramuscular, fasting rats, 2 mg/kg equivalent dose of Indo",0%
same,Percent inhibition,"[4]; intramuscular, fasting rats, 10 mg/kg equivalent dose of Indo",47.7%
same,Percent inhibition,"[4]; intramuscular, fasting rats, 20 mg/kg equivalent dose of Indo",49.7%
same,Percent inhibition,"[4]; subcutaneous, 1 mg/kg of Indo, fasting",4%
same,Percent inhibition,"[4]; subcutaneous, 2 mg/kg of Indo, fasting",6%
same,Percent inhibition,"[4]; subcutaneous, 5 mg/kg of Indo, fasting",24.9%
same,Percent inhibition,"[4]; subcutaneous, 7.5 mg/kg of Indo, non-fasting",47%
same,Percent inhibition,"[4]; subcutaneous, 10 mg/kg of Indo, fasting",35.8%
same,Percent inhibition,"[4]; subcutaneous, 20 mg/kg of Indo, fasting",33.9%
same,Percent inhibition,"[4]; subcutaneous, 20 mg/kg of Indo, non-fasting",31.6%
same,dose at which the anti-inflammatory effect plateaus,"[4]; subcutaneous, in MCT oil",5-7.5 mg kg^−1 of Indo
same,gastric toxicity as % of that of an equivalent dose of IndoH,[5],approximately 8%
same,reduction of gastric toxicity versus free IndoH,[5],50%
same,"percent inhibition in rat hind-paw diameter change, 3-hr",[6]; 3 h post carrageenan,30(4)%
same,"percent inhibition in rat hind-paw diameter change, 5-hr",[6]; 5 h post carrageenan,31(3)%
